Assay results reported in patent publication US6468981B1, “Compositions and methods for targeting pharmaceutically active materials to cells containing androgen receptors” (Emory University, priority 1994, dated 2002).

Assays:
LNCaP cells = experiment: Expression of pCMV-beta (lacZ) DNA in LNCaP cells, X-gal blue staining, number of blue cells per culture plate; format: cell-based, human; settings: DHT-poly-L-lysine alone, no DNA; 48 hours incubation
Method: DHT poly-L-lysine as described in Example 1 was dialyzed against tris-EDTA buffer pH=7 (“HMW-D”) or purified by gel filtration column chromatography (“HMW-2=fraction #2 of the column, HMW-9=fraction 9 of the column). Protein concentrations of reaction products and column fractions were determined by the coomassie blue method. DHT-poly-L-lysine at amounts from 0.05 micrograms to 12.5 micrograms were mixed with pCMV-beta DNA expression construct containing the lacZ gene driven by the CMV immediate early promoter/enhancer in a pVC19 backbone, in amounts from 3 to 50 micrograms in 100 microliters of water at room temperature for one hour with vortex mixing every 15 minutes.
The reaction products of Example 2 were added to 1-3 ml of tissue culture media supplemented with 10% fetal bovine serum and filtered through 0.2 micron filter and added to subconfluent cultures of LNCaP cells growing on glass slides. Cells were incubated at 37 degrees C. 5% CO2 for 48 hours. Next, adherent cells were washed with phosphate buffered saline (PBS) and fixed with 2% paraformaldelyde in 0.1 M NaPO4 buffer pH=7.4 for 45 min. to one hour. Fixative was aspirated and cells rinsed with PBS and X-gal stain was applied. […] Each culture plate was scored for the number of cells which turned blue.

[1] = target: androgen receptor of LNCaP prostate tumor cells (Homo sapiens, UniProt P10275, T878A); settings: cited from earlier work
Chain of androgen receptor of LNCaP prostate tumor cells (P10275 whole entry T878A): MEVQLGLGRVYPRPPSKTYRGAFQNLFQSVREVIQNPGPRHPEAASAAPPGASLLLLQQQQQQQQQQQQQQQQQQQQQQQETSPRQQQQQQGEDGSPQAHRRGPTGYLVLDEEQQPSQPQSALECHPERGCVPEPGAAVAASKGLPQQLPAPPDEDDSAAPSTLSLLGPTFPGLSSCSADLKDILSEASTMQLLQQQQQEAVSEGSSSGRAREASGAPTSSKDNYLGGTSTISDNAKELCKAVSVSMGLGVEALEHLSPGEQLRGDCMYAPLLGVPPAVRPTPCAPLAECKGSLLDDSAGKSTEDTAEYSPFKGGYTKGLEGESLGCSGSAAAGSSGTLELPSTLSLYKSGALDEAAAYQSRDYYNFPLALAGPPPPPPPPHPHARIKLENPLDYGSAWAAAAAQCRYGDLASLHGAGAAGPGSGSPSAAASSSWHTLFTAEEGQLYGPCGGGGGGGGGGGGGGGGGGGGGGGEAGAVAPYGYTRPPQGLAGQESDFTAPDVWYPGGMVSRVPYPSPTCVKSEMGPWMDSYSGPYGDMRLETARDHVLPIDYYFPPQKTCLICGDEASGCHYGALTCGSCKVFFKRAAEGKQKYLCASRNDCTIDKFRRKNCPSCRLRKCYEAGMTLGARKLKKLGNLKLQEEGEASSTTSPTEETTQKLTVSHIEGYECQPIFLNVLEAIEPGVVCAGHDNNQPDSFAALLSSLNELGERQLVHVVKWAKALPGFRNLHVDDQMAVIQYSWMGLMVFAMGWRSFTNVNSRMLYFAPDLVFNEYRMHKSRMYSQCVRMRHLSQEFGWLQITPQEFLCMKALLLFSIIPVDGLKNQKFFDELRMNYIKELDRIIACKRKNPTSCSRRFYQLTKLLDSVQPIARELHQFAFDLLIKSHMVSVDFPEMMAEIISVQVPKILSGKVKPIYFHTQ

Molecule | positive (blue-stained) cells (LNCaP cells) | Relative binding affinities for the androgen receptor [1]
DHT-poly-L-lysine HBr | no positive cells | –
C[C@]1(O)CC[C@H]2[C@@H]3CCC4=CC(=O)CCC4=C3C=C[C@@]21C [R1881, 17β-hydroxy-17α-methyl-estra-4,9,11-trien-3-one] | – | 100
